Measurements reported in ChEMBL document CHEMBL4190279 (Eur J Med Chem, 2017).

Columns and labels:
[1] = system: HBL-100; experiment: Potency index, ratio of cisplatin GI50 to compound GI50 for human HBL100 cells; type: functional
[2] = GPx-like activity of the compound assessed as velocity for H2O2 reduction by measuring oxidation of PhSH to (PhS)2 at 50 uM measured for 180 secs by spectrophotometric analysis; type: functional
[3] = target: T1, Cholinesterase (Equus caballus, UniProt P81908); experiment: Mixed-type inhibition of equine serum BuChE assessed as enzyme-substrate-inhibitor complex using p-nitrophenyl butyrate as substrate by Lineweaver-Burk plot analysis
[4] = target: T2, Acetylcholinesterase (Electrophorus electricus, UniProt O42275); experiment: Non-competitive inhibition of electric eel AChE assessed as enzyme-inhibitor complex using p-nitrophenyl acetate as substrate by Lineweaver-Burk plot analysis
[5] = Selectivity index, ratio of Ki for equine serum BuChE assessed as enzyme-substrate-inhibitor complex to Ki for electric eel AChE assessed as enzyme-substrate-inhibitor complex
[6] = system: SW1573; experiment: cells; conditions: Homo sapiens, SW1573, 48 h
Description: Antiproliferative activity against human SW1573 cells after 48 hrs by SRB assay

[7] = GPx-like activity of the compound assessed as H2O2 reduction by measuring oxidation of PhSH to (PhS)2 at 50 uM measured for 180 secs by spectrophotometric analysis relative to control; type: functional
[8] = system: WiDr; experiment: Potency index, ratio of 5-FU GI50 to compound GI50 for human WiDr cells; type: functional
[9] = system: HBL-100; experiment: Potency index, ratio of 5-FU GI50 to compound GI50 for human HBL100 cells; type: functional
[10] = target: T1, Cholinesterase; experiment: Mixed-type inhibition of equine serum BuChE assessed as enzyme-inhibitor complex using p-nitrophenyl butyrate as substrate by Lineweaver-Burk plot analysis
[11] = GPx-like activity of the compound assessed as half life for H2O2 reduction by measuring oxidation of PhSH to (PhS)2 at 50 uM measured for 180 secs by spectrophotometric analysis relative to control; type: functional
[12] = system: SW1573; experiment: Potency index, ratio of 5-FU GI50 to compound GI50 for human SW1573 cells; type: functional
[13] = target: T2, Acetylcholinesterase; experiment: Non-competitive inhibition of electric eel AChE assessed as enzyme-substrate-inhibitor complex using p-nitrophenyl acetate as substrate by Lineweaver-Burk plot analysis
[14] = system: T47D; experiment: Potency index, ratio of 5-FU GI50 to compound GI50 for human T47D cells; type: functional
[15] = system: SW1573; experiment: Potency index, ratio of cisplatin GI50 to compound GI50 for human SW1573 cells; type: functional
[16] = system: T47D; experiment: Potency index, ratio of cisplatin GI50 to compound GI50 for human T47D cells; type: functional
[17] = system: HeLa; experiment: Potency index, ratio of 5-FU GI50 to compound GI50 for human HeLa cells; type: functional
[18] = system: HBL-100; experiment: cells; conditions: Homo sapiens, HBL-100, 48 h
Description: Antiproliferative activity against human HBL100 cells after 48 hrs by SRB assay

[19] = in vitro; conditions: human, hTERT-BJ cells
Description: Antiproliferative activity against human hTERT-BJ cells after 48 hrs by SRB assay

[20] = system: T47D; experiment: cells; conditions: Homo sapiens, 48 h
Description: Antiproliferative activity against human T47D cells after 48 hrs by SRB assay

[21] = system: A549; experiment: Potency index, ratio of cisplatin GI50 to compound GI50 for human A549 cells; type: functional
[22] = system: WiDr; experiment: cells; conditions: Homo sapiens, 48 h
Description: Antiproliferative activity against human WiDr cells after 48 hrs by SRB assay

[23] = system: HeLa; experiment: Potency index, ratio of cisplatin GI50 to compound GI50 for human HeLa cells; type: functional
[24] = system: A549; experiment: cells; conditions: Homo sapiens, A549, 48 h
Description: Antiproliferative activity against human A549 cells after 48 hrs by SRB assay

[25] = system: WiDr; experiment: Potency index, ratio of cisplatin GI50 to compound GI50 for human WiDr cells; type: functional
[26] = system: HeLa; experiment: cells; conditions: Homo sapiens, 48 h
Description: Antiproliferative activity against human HeLa cells after 48 hrs by SRB assay

[27] = target: Amyloid-beta precursor protein (Homo sapiens) (UniProt P05067); experiment: Inhibition of amyloid beta (1 to 42) (unknown origin) self aggregation at 50 uM relative to control
[28] = target: T3, Acetylcholinesterase (Homo sapiens, UniProt P22303); experiment: Inhibition of human serum AChE using acetylthiocholine iodide as substrate preincubated for 20 mins followed by substrate addition measured after 5 mins by Ellman's method
[29] = target: T3, Acetylcholinesterase; experiment: Potency index, ratio of cystamine-tacrine IC50 to compound IC50 for human AChE
[30] = system: N2a; experiment: Cytotoxicity against mouse N2A cells assessed as reduction in cell viability at 50 uM after 24 hrs by MTT assay; type: cell-based
[31] = target: Amyloid-beta precursor protein (Homo sapiens) (UniProt P05067); experiment: Inhibition of amyloid beta (1 to 42) (unknown origin) self aggregation at 50 uM after 24 hrs by ThT-based fluorometric method relative to control
[32] = Selectivity index, ratio of GI50 for human hTERT-BJ cells to GI50 for human WiDr cells; type: toxicity; conditions: hTERT-BJ cells versus WiDr cells, read-out: RatioGI50
[33] = target: T2, Acetylcholinesterase; experiment: Mixed-type inhibition of electric eel AChE assessed as enzyme-substrate-inhibitor complex using p-nitrophenyl acetate as substrate by Lineweaver-Burk plot analysis
[34] = target: T2, Acetylcholinesterase; experiment: Mixed-type inhibition of electric eel AChE assessed as enzyme-inhibitor complex using p-nitrophenyl acetate as substrate by Lineweaver-Burk plot analysis
[35] = target: T1, Cholinesterase; experiment: Non-competitive inhibition of equine serum BuChE assessed as enzyme-substrate-inhibitor complex using p-nitrophenyl butyrate as substrate by Lineweaver-Burk plot analysis
[36] = target: T1, Cholinesterase; experiment: Non-competitive inhibition of equine serum BuChE assessed as enzyme-inhibitor complex using p-nitrophenyl butyrate as substrate by Lineweaver-Burk plot analysis
[37] = Potency index, ratio of compound velocity to diphenyl diselenide velocity for GPx-like activity assessed as H2O2 reduction by measuring oxidation of PhSH to (PhS)2; type: functional
[38] = Potency index, ratio of compound velocity to ebselen velocity for GPx-like activity assessed as H2O2 reduction by measuring oxidation of PhSH to (PhS)2; type: functional
[39] = target: T2, Acetylcholinesterase; experiment: Uncompetitive inhibition of electric eel AChE assessed as enzyme-substrate-inhibitor complex using p-nitrophenyl acetate as substrate by Lineweaver-Burk plot analysis
[40] = target: T2, Acetylcholinesterase; experiment: Competitive inhibition of electric eel AChE assessed as enzyme-inhibitor complex using p-nitrophenyl acetate as substrate by Lineweaver-Burk plot analysis
[41] = target: T1, Cholinesterase
Description: Competitive inhibition of equine serum BuChE assessed as enzyme-inhibitor complex using p-nitrophenyl butyrate as substrate by Lineweaver-Burk plot analysis

Chain of Amyloid-beta precursor protein (Homo sapiens) (P05067 whole entry): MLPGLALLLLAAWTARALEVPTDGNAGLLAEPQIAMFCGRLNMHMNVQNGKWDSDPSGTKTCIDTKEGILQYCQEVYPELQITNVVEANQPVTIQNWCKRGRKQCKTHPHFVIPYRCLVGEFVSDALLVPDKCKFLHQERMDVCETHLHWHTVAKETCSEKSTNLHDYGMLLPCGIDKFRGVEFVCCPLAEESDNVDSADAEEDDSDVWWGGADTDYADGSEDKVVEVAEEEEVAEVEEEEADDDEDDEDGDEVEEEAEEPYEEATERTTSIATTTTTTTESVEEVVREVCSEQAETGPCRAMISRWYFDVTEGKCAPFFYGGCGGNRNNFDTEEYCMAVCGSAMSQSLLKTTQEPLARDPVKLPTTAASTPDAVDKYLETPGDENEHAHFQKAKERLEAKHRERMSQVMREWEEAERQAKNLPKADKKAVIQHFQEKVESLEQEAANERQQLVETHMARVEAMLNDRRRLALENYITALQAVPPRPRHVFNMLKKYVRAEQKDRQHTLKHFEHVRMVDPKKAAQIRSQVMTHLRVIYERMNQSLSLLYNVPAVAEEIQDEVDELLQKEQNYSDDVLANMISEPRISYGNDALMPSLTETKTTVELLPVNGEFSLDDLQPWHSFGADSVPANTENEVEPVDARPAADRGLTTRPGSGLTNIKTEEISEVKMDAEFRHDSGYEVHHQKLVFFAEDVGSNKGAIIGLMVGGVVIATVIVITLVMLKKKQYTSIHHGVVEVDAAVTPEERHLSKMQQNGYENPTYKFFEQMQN
T2 sequence (O42275 whole entry): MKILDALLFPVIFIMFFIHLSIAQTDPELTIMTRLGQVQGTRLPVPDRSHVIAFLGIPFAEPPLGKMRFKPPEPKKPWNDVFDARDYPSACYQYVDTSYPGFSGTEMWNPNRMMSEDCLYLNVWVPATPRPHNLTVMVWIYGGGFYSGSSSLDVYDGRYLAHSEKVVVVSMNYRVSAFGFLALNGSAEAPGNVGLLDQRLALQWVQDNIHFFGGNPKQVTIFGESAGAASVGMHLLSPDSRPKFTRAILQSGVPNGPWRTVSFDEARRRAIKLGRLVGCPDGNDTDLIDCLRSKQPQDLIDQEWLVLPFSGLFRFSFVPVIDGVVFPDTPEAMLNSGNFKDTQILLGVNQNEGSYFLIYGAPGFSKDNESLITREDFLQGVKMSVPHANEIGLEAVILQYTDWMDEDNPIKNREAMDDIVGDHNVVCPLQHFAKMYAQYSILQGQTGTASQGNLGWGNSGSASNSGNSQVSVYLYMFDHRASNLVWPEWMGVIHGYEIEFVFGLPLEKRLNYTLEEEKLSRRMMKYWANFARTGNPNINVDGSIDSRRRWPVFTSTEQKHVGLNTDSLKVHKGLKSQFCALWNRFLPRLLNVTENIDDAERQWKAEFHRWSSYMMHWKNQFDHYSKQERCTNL
T1 sequence (P81908 whole entry): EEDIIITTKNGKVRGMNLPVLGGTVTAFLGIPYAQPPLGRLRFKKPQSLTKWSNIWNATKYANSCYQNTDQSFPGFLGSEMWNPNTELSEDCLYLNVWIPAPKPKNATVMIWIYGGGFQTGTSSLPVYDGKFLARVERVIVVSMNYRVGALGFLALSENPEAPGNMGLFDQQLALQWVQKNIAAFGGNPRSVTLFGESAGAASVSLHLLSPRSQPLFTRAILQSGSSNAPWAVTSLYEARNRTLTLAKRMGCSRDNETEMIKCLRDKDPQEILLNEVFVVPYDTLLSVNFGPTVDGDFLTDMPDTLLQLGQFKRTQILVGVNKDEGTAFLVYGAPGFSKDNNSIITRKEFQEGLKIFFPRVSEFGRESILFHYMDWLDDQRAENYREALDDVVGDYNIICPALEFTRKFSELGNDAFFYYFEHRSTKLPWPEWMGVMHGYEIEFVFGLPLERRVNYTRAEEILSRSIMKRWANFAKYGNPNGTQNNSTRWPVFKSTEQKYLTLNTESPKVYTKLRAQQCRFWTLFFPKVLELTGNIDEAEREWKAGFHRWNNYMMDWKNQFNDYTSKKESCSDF
T3 sequence (P22303 whole entry): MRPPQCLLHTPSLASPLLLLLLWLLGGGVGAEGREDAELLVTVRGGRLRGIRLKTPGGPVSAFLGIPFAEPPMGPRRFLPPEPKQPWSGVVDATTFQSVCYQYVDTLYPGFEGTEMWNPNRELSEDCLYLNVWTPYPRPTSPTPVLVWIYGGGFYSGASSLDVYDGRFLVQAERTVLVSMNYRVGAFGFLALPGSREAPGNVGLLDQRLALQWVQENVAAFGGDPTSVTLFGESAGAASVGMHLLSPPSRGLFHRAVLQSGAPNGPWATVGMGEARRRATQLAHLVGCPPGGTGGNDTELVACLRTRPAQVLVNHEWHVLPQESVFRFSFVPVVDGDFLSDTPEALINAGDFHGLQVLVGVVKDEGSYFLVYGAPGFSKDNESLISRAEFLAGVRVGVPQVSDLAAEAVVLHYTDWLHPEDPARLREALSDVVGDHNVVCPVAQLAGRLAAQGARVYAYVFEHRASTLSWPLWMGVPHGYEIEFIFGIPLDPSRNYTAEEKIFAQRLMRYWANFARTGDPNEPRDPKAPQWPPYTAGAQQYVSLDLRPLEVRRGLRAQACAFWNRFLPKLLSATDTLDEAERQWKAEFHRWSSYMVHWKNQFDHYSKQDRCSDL

| SMILES | Activity [2] | Ratio Ki [5] | GI50 [6] | fold change (FC) [7] | T1/2 [11] | GI50 [18] | GI50 at 48 h [19] | GI50 [20] | GI50 [22] | GI50 [24] | GI50 [26] | also measured |
| --- | --- | --- | --- | --- | --- | --- | --- | --- | --- | --- | --- | --- |
| c1ccc2c(NCCCCCCSSCCCCCCNc3c4c(nc5ccccc35)CCCC4)c3c(nc2c1)CCCC3 | 32.8 µM/min | 4.7 | 0.24 µM | 4.2 | 1.27 h | 0.99 µM | 220 nM | 370 nM | 200 nM | 1.1 µM | 0.33 µM | RatioGI50 [1]: <=162; Ki [3]: 70 nM; Ki [4]: 14.8 nM; RatioGI50 [8]: <=306; RatioGI50 [9]: <=306; Ki [10]: 243 nM; RatioGI50 [12]: <=306; Ki [13]: 14.8 nM; RatioGI50 [14]: <=306; RatioGI50 [15]: <=162; RatioGI50 [16]: <=162; RatioGI50 [17]: <=306; RatioGI50 [21]: <=162; RatioGI50 [23]: <=162; RatioGI50 [25]: <=162 |
| c1ccc2c(NCCSSCCNc3c4c(nc5ccccc35)CCCC4)c3c(nc2c1)CCCC3 | – | – | – | – | – | – | – | – | – | – | – | inhibition [27]: 66.3% |
| O=c1[nH]cc(F)c(=O)[nH]1 [FLUOROURACIL] | – | – | 4.3 µM | – | – | 5.5 µM | 5500 nM | 47000 nM | 49000 nM | – | 15 µM | – |
| c1ccc2c(NCCCCCCCNc3c4c(nc5ccccc35)CCCC4)c3c(nc2c1)CCCC3 | – | – | – | – | – | – | – | – | – | – | – | inhibition [27]: 71.1% |
| c1ccc2c(NCCCCCSSCCCCCNc3c4c(nc5ccccc35)CCCC4)c3c(nc2c1)CCCC3 | 35.5 µM/min | 74 | 0.29 µM | 4.6 | 1.17 h | 1.2 µM | 1400 nM | 950 nM | 300 nM | 1.4 µM | 1 µM | RatioGI50 [1]: <=162; Ki [3]: 422 nM; IC50 [28]: 1.62 nM; RatioGI50 [8]: <=306; RatioGI50 [9]: <=306; Ki [10]: 166 nM; RatioGI50 [12]: <=306; RatioGI50 [14]: <=306; RatioGI50 [15]: <=162; RatioGI50 [16]: <=162; Ratio IC50 [29]: 3; RatioGI50 [17]: <=306; Activity [30]: Non-Toxic; inhibition [31]: 61.8%; RatioGI50 [21]: <=162; selectivity ratio [32]: ≤ 4.7; Ki [33]: 5.7 nM; RatioGI50 [23]: <=162; Ki [34]: 0.0031 µM; RatioGI50 [25]: <=162 |
| COc1ccc(NC(=[Se])NCCCCCCNc2c3c(nc4ccccc24)CCCC3)cc1 | 82.9 µM/min | 1.1 | – | 10.6 | 0.503 h | – | – | – | – | – | – | Ki [4]: 26.6 nM; Ki [35]: 28.6 nM; Ki [36]: 28.6 nM; Ki [13]: 26.6 nM; Ratio [37]: 5.6; Ratio [38]: 41.4 |
| c1ccc([Se]CCCCCCNc2c3c(nc4ccccc24)CCCC3)cc1 | 19.6 µM/min | 7.1 | 1.1 µM | 2.5 | 2.13 h | 2 µM | 2400 nM | 660 nM | 890 nM | 0.86 µM | 1.2 µM | Ki [39]: 8 nM; Ki [35]: 57 nM; Ki [36]: 57 nM; selectivity ratio [32]: ≤ 4.7 |
| N#C[Se]CCCCCNc1c2c(nc3ccccc13)CCCC2 | 22.4 µM/min | – | 0.65 µM | 2.9 | 1.86 h | 1.1 µM | 360 nM | 700 nM | 650 nM | 1.2 µM | 0.37 µM | Ki [40]: 34.5 nM; Ki [41]: 206 nM |
| c1ccc([Se][Se]c2ccccc2)cc1 | 14.8 µM/min | – | – | 1.9 | 2.81 h | – | – | – | – | – | – | – |
| N#CSCCCCCCNc1c2c(nc3ccccc13)CCCC2 | 21.6 µM/min | – | 5.1 µM | 2.8 | 1.93 h | 11 µM | – | 5500 nM | 2400 nM | 8.3 µM | 8.1 µM | Ki [3]: 673 nM; Ki [40]: 18.5 nM; Ki [10]: 252 nM |
| N#CSCCCCCNc1c2c(nc3ccccc13)CCCC2 | 23.1 µM/min | – | 15 µM | 3 | 1.8 h | 15 µM | – | 8300 nM | 4100 nM | 14 µM | 11 µM | Ki [4]: 50.1 nM; Ki [13]: 50.1 nM; Ki [41]: 228 nM |
| O=c1c2ccccc2[se]n1-c1ccccc1 | 2 µM/min | – | – | 0.3 | 20.8 h | – | – | – | – | – | – | – |
| Cc1ccc(NC(=[Se])NCCCCCCNc2c3c(nc4ccccc24)CCCC3)cc1 | 29.6 µM/min | – | 3.7 µM | 3.8 | 1.41 h | 8.1 µM | – | 3000 nM | 2200 nM | 5.5 µM | 4.1 µM | Ki [40]: 7.6 nM; Ki [35]: 10.7 nM; Ki [36]: 10.7 nM |
| O=C(C[Se]c1ccccc1)Nc1c2c(nc3ccccc13)CCCC2 | 3.6 µM/min | 0.5 | > 100 µM | 0.5 | 11.6 h | 35 µM | – | 53000 nM | > 100000 nM | 37 µM | 32 µM | Ki [3]: 1710 nM; Ki [10]: 518 nM; Ki [33]: 3540 nM; Ki [34]: 8.42 µM |
